Source: PMC6522510 (Nature Communications, 2019)

Experiments:
Set-up in all cases: species or system AML cell lines (8); Primary HTS, single concentration about 10 uM, Cell Titer Glo viability; log10 luminescence, per cent inhibition relative to cycloheximide control
Details in all cases: 72 h, relative to cycloheximide control, log10 luminescence; inhibitor
ML-2 = system: ML-2
M07e = system: M07e
CHRF288-11 = system: CHRF288-11
MOLM-13 = system: MOLM-13
MV4-11 = system: MV4-11
U937 = system: U937
CMS = system: CMS
CMK = system: CMK

| SMILES | ML-2 %inh (ML-2) | M07e %inh (M07e) | CHRF288-11 %inh (CHRF288-11) | MOLM-13 %inh (MOLM-13) | MV4-11 %inh (MV4-11) | U937 %inh (U937) | CMS %inh (CMS) | CMK %inh (CMK) |
| --- | --- | --- | --- | --- | --- | --- | --- | --- |
| CN1CCC(n2cnc(-c3ccc(F)cc3)c2-c2ccnc(Nc3ccccc3)n2)CC1 [SJ000573236-1, TG19207-284A1] | 9.737% | 7.373% | 30.13% | 50.36% | 26.4% | 6.434% | 10.11% | 43.62% |
| Cc1nn(C)c2cc(N(C)c3ccnc(Nc4cccc(S(N)(=O)=O)c4)n3)ccc12 [SJ000573237-1, U17574/1/1] | 1.956% | 4.667% | 20.72% | 82.12% | 42.73% | 9.474% | 12.43% | 54.18% |
| CN(C)CCNC(=O)Nc1ccc(N(C)c2ccnc(Nc3ccc(CS(C)(=O)=O)cc3)n2)cc1 [SJ000573239-1, U17983/95/3] | 15.37% | 0.06927% | 29.73% | 92.53% | 73.54% | -1.201% | -0.9741% | 26.79% |
| COc1ccc(CNC(=O)c2ccc(-c3cc(-c4nnc(C)o4)ccc3C)cc2)cc1 [SJ000573240-1, R5419/62/2] | 2.422% | 1.245% | 2.517% | 2.636% | -0.02622% | 0.2137% | -0.9608% | -2.585% |
| Cc1cc(O)cc(C)c1/C=C/c1cncc(C(=O)N(C)C)c1 [SJ000573241-1, U11962/4/2] | -0.6112% | 3.606% | 4.933% | -1.208% | 0.1016% | -1.176% | 2.581% | 1.656% |
| COC(=O)c1ccc2c(c1)C(=Cc1cc(Br)c(O)c(Br)c1)C(=O)N2 [SJ000573242-1, U8097/138/1] | 8.878% | 3.423% | 6.512% | 7.69% | 16.92% | 4.474% | 10.7% | 10.16% |
| NCc1ccc(-c2nc(-c3ccc(Cl)c(O)c3)c(-c3ccncc3)[nH]2)cc1 [SJ000573243-1, AN48585-012A1] | 1.975% | 3.038% | -2.078% | 4.769% | 1.86% | -0.0474% | -0.03858% | 0.6536% |
| CCn1c(-c2nonc2N)nc2cnc(Oc3cccc(NC(=O)c4ccc(N(C)C)cc4)c3)cc21 [SJ000573244-1, DG202759-186A1] | 13.68% | -4.099% | 1.25% | 0.8338% | 28.29% | 5.13% | 1.931% | 54.89% |
| CC(=O)NCc1cccc(C#Cc2cncnc2Nc2ccc(OCc3cccc(F)c3)c(Cl)c2)c1 [SJ000573245-1, U17810/92/1] | 1.051% | 1.428% | -2.703% | 4.772% | 1.627% | 4.477% | 2.982% | 4.208% |
| CN1CCC(n2cnc(-c3ccc(F)cc3)c2-c2ccnc(NCCO)n2)CC1 [SJ000573246-1, TG19207-178A1] | 6.134% | 3.039% | 13.91% | 21.36% | 13.81% | 1.73% | -0.04607% | 15.99% |
| c1ccc(Cc2nc3ccc(Nc4ncnc5ccccc45)cc3[nH]2)cc1 [SJ000573247-1, C3072/110/1] | 2.215% | 0.8889% | 3.355% | 6.702% | 1.262% | -1.321% | 0.8443% | -4.013% |
| COc1ccc2cc(-c3c(-c4ccncc4)nc(-c4ccc([S+](C)[O-])cc4C)n3C)ccc2c1 (stereo not shown) [SJ000573248-1, NJ44157-082A1] | 0.217% | 7.477% | 5.983% | 2.934% | 7.703% | 1.089% | 2.672% | 1.35% |
| CNC(=O)c1cncc(/C=C/c2c(C)cccc2C)c1 [SJ000573249-1, U12068/55/2] | 1.303% | 6.499% | 2.946% | 0.7031% | 1.251% | -0.6106% | 2.842% | 2.958% |
| FC(F)(F)c1cccc(Nc2nccc(-c3cnn4nc(-c5ccccc5)ccc34)n2)c1 [SJ000573250-1, U17838/151/2] | -0.4365% | 2.996% | 8.085% | 2.078% | 3.227% | -0.9941% | 3.035% | 0.1975% |
| NC(=O)c1ccc(-c2nc(-c3ccccn3)c(-c3ccc4c(c3)OCO4)[nH]2)cc1 [SJ000573251-1, TH48888-160A1] | 2.652% | 3.715% | 1.837% | 3.34% | 2.981% | -1.697% | 1.606% | 9.718% |
| Fc1cccc(COc2ccc(Nc3ncnc4cc(-c5ccc[nH]5)sc34)cc2Cl)c1 [SJ000573252-1, U16950/26/1] | 17.93% | 5.221% | 1.14% | 14.24% | 9.963% | 11.09% | 15.37% | 115.2% |
| COc1ccccc1-c1cc(/C=C2\C(=O)Nc3ncc(Br)cc32)cc(Br)c1O [SJ000573253-1, U16719/161/1] | 1.918% | 2.858% | -3.427% | -1.113% | 0.2955% | -3.171% | -1.153% | 2.536% |
| OCc1ccc(-c2nc(-c3ccc4c(c3)OCO4)c(-c3ccccn3)[nH]2)cc1 [SJ000573254-1, FH98924-116A1] | 2.365% | 0.7981% | -3.015% | 0.3005% | -0.8385% | -3.528% | 0.5352% | -1.373% |
| COc1cc2ncn(-c3cc(OCc4cccs4)c(C(N)=O)s3)c2cc1OC [SJ000573255-1, U21051/7/15] | 24.59% | 12.77% | 6.199% | 63.69% | 6.732% | 17.16% | 9.159% | -3.278% |
| CC1=C(C(=O)Nc2ccc3[nH]ncc3c2)C(c2ccc(Cl)c(Cl)c2)CC(=O)N1 (stereo not shown) [SJ000573256-1, SD205340-087A3] | 6.91% | 6.129% | 13.93% | 0.01758% | 13.75% | 2.616% | 3.826% | 25.41% |
| C[C@@H](Oc1cc(-n2cnc3ccc(OCC4CCN(C)CC4)cc32)sc1C(N)=O)c1ccccc1C(F)(F)F [SJ000573257-1, U20395/196/2] | 59.84% | 98.02% | 130.5% | 108.4% | 86.97% | 73.66% | 75.53% | 97.6% |
| CNC(=O)c1cncc(/C=C/c2c(Cl)cccc2Cl)c1 [SJ000573258-1, U12068/57/2] | -0.3801% | 7.169% | -0.5271% | 2.751% | 3.453% | 3.831% | 3.911% | 4.903% |
| COc1ccc(Nc2ncc(-c3ccccc3)o2)cc1OC [SJ000573259-1, U14961/58/1] | 4.567% | 6.596% | -4.817% | 83.48% | 88.15% | -1.171% | 0.9883% | 5.775% |
